According to paper PMC4688937, “Heterologous expression of the isopimaric acid pathway in Nicotiana benthamiana and the effect of N-terminal modifications of the involved cytochrome P450 enzyme” (Journal of Biological Engineering, 2015):

How the values were obtained:
diTPS-ISO = target: T1, diTPS-ISO (Picea abies, UniProt Q675L5); assay: transient expression in N. benthamiana leaves, product by GC-MS; conditions: endogenous GGPP in leaves, in planta; cyclisation to isopimaradiene
T1 construct: gene TPS-ISO; C-terminal FLAG tag, pEAQ-HT, transiently expressed in Nicotiana benthamiana leaves; own plastid targeting; 92 kDa
T1 sequence (Q675L5 69-867): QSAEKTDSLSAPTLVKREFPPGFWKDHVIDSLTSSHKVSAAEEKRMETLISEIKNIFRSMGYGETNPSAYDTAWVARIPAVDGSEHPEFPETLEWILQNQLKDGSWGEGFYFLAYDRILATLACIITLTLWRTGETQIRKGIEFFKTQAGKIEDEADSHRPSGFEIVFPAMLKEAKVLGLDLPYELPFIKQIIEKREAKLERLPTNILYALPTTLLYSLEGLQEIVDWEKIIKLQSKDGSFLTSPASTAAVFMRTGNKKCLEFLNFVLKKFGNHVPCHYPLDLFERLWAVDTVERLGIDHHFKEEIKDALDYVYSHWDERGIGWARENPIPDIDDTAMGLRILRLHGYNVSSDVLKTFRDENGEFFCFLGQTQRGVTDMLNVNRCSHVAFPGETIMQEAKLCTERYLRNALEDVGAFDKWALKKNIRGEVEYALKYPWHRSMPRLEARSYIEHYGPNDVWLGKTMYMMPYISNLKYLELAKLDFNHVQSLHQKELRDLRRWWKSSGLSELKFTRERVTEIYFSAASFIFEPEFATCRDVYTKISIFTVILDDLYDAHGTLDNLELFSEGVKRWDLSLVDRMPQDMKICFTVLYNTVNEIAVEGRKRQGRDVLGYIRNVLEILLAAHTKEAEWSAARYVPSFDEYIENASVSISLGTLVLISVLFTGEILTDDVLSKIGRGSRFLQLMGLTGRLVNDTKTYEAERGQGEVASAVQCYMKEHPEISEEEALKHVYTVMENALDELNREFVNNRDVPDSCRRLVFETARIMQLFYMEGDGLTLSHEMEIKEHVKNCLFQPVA

CYP720B4 = target: T2, CYP720B4 (Picea sitchensis, UniProt E5FA70); assay: co-expression with diTPS-ISO in N. benthamiana leaves, GC-MS and LC-MS; conditions: in planta, endogenous redox partner
T2 construct: ER; 55 kDa

ΔTm-CYP720B4 = target: T3, ΔTm-CYP720B4 (Picea sitchensis, UniProt E5FA70); assay: co-expression with diTPS-ISO, DXS and GGPPs in N. benthamiana leaves, GC-FID and LC-MS; conditions: in planta, endogenous redox partner
T3 construct: N-terminal membrane domain (first 37 amino acids) removed, new start Met from primer, FLAG tag, expressed in Nicotiana benthamiana leaves; 51 kDa

Tp-Barnes-CYP720B4 = target: T4, Tp-Barnes-CYP720B4 (Picea sitchensis, UniProt E5FA70, DEL3-9/V13A, form not given); assay: as above; conditions: in planta, chloroplast-targeted enzyme
T4 construct: Barnes-modified N-terminus preceded by transit peptide (N-terminal 52 residues of Arabidopsis thaliana ferredoxin FedA, GenBank AY128936), partly processed; FLAG tag; chloroplast-targeted in Nicotiana benthamiana leaves; 60 kDa precursor

Barnes-CYP720B4 = target: T5, Barnes-CYP720B4 (Picea sitchensis, UniProt E5FA70, DEL3-9/V13A, form not given); assay: as above; conditions: in planta, endogenous redox partner
T5 construct: Barnes-modified N-terminus (text: residues 3-9 deleted, V13A); 54 kDa
T5 sequence (E5FA70 entry or part of it DEL3-9/V13A, form open): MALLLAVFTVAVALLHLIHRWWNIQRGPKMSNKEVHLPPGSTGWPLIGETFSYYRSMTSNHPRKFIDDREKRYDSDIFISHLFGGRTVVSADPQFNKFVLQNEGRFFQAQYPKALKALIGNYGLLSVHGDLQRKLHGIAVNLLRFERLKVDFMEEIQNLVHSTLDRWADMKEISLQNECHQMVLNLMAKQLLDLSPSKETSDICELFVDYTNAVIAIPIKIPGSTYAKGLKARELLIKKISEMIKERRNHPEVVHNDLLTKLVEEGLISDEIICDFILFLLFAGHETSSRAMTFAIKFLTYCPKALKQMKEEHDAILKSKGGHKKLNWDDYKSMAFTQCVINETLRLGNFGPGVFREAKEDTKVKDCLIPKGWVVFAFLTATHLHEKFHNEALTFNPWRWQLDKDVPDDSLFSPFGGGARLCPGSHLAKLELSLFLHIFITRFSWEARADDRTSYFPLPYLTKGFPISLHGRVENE

T2 sequence (E5FA70 entry or part of it): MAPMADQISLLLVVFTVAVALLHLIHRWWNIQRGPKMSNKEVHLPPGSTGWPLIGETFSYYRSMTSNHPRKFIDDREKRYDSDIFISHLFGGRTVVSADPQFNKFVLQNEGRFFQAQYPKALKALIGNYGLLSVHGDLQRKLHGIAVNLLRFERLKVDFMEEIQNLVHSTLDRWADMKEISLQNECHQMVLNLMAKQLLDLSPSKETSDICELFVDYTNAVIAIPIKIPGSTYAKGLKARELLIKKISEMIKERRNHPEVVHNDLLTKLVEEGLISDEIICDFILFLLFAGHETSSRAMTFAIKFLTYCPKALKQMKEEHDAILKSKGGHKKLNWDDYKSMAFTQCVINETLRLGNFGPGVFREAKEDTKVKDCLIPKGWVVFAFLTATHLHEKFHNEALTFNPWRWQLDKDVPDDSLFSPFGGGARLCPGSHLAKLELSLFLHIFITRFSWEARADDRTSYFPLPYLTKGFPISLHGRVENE
T4 sequence (E5FA70 entry or part of it DEL3-9/V13A, form open): as the sequence (E5FA70 entry or part of it DEL3-9/V13A, form open) above
T3 sequence (E5FA70 entry or part of it, stated change not applied): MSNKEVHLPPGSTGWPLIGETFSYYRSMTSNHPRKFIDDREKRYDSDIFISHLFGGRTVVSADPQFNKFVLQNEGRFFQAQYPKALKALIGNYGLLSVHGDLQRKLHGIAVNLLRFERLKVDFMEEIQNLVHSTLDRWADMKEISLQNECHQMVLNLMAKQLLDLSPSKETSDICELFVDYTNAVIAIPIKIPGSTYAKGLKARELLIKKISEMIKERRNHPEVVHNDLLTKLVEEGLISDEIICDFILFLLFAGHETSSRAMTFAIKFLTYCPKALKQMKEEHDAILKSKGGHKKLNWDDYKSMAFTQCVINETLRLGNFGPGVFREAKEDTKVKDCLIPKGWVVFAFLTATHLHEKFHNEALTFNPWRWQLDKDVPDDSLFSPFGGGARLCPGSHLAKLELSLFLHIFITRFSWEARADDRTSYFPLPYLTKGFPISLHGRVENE

| SMILES | transient expression in N. benthamiana leaves, product by GC-MS (diTPS-ISO) | co-expression with diTPS-ISO in N. benthamiana leaves, GC-MS and LC-MS (CYP720B4) | co-expression with diTPS-ISO, DXS and GGPPs in N. benthamiana leaves, GC-FID and (ΔTm-CYP720B4) | co-expression with diTPS-ISO, DXS and GGPPs in N. benthamiana leaves, GC-FID and (Tp-Barnes-CYP720B4) | co-expression with diTPS-ISO, DXS and GGPPs in N. benthamiana leaves, GC-FID and (Barnes-CYP720B4) |
| --- | --- | --- | --- | --- | --- |
| CC(C)=CCC/C(C)=C/CC/C(C)=C/CC/C(C)=C/COP(=O)(O)OP(=O)(O)O [GGPP] | The expressed diTPS-ISO is active as confirmed by the formation of isopimaradiene | – | – | – | – |
| C=C[C@@]1(C)CC[C@H]2C(=CC[C@H]3C(C)(C)CCC[C@]23C)C1 [isopimaradiene] | active as confirmed by the formation of isopimaradiene in the infiltrated leaves | Upon co-expression with CYP720B4, isopimaradiene was depleted and isopimaric acid accumulated | CYP720B4 remains active even after complete removal of the transmembrane domain | In contrast, the Tp-Barnes-CYP720B4 was active | Barnes-CYP720B4 activity does not seem to deteriorate after the N-terminal modification |
| C=C[C@@]1(C)CC[C@H]2C(=CC[C@@H]3[C@]2(C)CCC[C@@]3(C)C(=O)O)C1 [isopimaric acid] | – | isopimaradiene was depleted and isopimaric acid accumulated (Fig. 2c, d), indicating efficient conversion | – | – | – |
